Drawing on article PMC5239439, “Virtual screening, optimization, and identification of a novel specific PTP-MEG2 Inhibitor with potential therapy for T2DM” (Oncotarget, 2016), this text covers IC50 for two compounds.

Where two headings read alike, the source gives them in different places. Where only a bound is given, the exact number is not on record here.

What all share (format): biochemical
The target in one test is T1, PTP1B (Homo sapiens, UniProt P18031).
T1 construct: host or cells: E. coli
T1 sequence (P18031 1-435): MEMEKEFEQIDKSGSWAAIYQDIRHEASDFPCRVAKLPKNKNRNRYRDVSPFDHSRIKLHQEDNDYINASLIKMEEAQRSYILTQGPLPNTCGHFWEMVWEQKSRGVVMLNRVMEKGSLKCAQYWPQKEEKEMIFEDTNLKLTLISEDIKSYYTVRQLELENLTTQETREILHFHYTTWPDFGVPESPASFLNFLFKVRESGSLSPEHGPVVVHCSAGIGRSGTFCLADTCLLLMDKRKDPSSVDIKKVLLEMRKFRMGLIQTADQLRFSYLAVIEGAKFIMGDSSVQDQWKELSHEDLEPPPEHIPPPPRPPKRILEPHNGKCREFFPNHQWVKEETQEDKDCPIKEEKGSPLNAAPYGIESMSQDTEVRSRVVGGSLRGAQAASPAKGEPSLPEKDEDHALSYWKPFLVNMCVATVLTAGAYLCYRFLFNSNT
Briefly: Enzymatic assay with pNPP as substrate, PTP1B. To be noted: pH 6.0, 37°C 30 min. As to the method: (§1) Briefly, pNPP was hydrolyzed by PTPs to give para-nitrophenol. Para-nitrophenol converts into para-nitrophenolate (pNP), measured with a spectrophotometer after stopping solution was added. The regents and chemicals used in this assay are as follows: Ni-NTA labeled human recombinant PTPs expressed in E coli; de-phosphorylation assay buffer (50 mM citrate (pH 6.0), 0.1 M NaCl, 1 mM EDTA and 1 mM dithiothreitol (DTT)); substrate (2 mM pNPP) in assay buffer; stopping solution (0.2 M sodium hydroxide). PTPs and test-compounds with geometrically increasing concentrations were mixed in 50 μL buffer in each well of a 96-well plate. An equivalent volume of buffer without PTPs was used as blank control. After pre-incubation for 15 min at room temperature, the substrate (50 μL) was added into each well and incubated at 37°C for 30 min. Stopping buffer was poured into each well on ice and the OD value was read at 405 nm against blank.

Another test concerns the target T2, TCPTP (Homo sapiens, UniProt P17706).
T2 construct: host or cells: E. coli
T2 sequence (P17706 1-415): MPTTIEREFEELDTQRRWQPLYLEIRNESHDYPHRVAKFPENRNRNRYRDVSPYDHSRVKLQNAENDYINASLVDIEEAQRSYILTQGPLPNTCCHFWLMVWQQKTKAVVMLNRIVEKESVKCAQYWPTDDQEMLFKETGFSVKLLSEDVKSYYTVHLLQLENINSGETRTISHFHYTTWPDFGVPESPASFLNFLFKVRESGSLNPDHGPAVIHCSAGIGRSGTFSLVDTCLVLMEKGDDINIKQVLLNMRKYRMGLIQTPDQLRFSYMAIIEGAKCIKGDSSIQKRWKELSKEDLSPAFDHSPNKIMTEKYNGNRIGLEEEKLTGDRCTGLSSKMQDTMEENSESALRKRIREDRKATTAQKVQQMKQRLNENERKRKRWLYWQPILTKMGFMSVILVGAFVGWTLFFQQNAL
Briefly: Enzymatic assay with pNPP as substrate, TCPTP. As to the method: as §1

The next test has as its target T3, PTP-MEG2 (Homo sapiens, UniProt P43378).
T3 construct: host or cells: E. coli
T3 sequence (P43378 1-593): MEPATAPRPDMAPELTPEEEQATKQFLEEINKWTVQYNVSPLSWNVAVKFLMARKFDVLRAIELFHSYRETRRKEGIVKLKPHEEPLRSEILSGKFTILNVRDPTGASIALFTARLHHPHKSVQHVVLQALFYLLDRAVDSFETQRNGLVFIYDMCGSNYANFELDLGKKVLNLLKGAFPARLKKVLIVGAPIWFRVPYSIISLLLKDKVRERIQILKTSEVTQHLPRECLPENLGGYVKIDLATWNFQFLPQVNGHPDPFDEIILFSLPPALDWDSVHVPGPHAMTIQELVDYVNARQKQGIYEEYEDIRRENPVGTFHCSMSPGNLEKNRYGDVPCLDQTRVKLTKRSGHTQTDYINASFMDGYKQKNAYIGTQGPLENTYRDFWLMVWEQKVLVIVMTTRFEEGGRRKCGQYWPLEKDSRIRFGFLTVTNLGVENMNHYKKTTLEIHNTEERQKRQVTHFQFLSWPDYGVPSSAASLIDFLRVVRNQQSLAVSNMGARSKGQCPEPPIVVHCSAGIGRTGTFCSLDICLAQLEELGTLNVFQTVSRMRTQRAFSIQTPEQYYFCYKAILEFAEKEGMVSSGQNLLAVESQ
As to the kind of experiment: Enzymatic assay with pNPP as substrate, PTP-MEG2. Conditions: pH 6.0, 37°C 30 min. As to the method:
as §1

On to `O=C(CSc1nc2ccccc2s1)Nc1cccc2ccccc12` [Compound 4a, 2-(benzo[d]thiazol-2-ylthio)-N-(naphthalen-1-yl)acetamide], for which the IC50 against PTP1B was greater than 25 µM; against TCPTP, greater than 25 µM; against PTP-MEG2 it was 3.2 µM.
Regarding `O=C(CCCSc1nc2ccccc2s1)Nc1cccc2ccccc12` [Compound 4b, 4-(benzo[d]thiazol-2-ylthio)-N-(naphthalen-1-yl)butanamide], the IC50 against PTP1B was greater than 25 µM; at TCPTP (pNPP substrate, pH 6.0, 37°C 30 min, read-out: IC50 TCPTP), greater than 25 µM; at PTP-MEG2, 4.3 µM.

In general, IC50 refers to the midpoint of a concentration-inhibition curve.
